{"source": "paper PMC7915449", "about": "“Differential Regulation of Bilastine Affinity for Human Histamine H1 Receptors by Lys 179 and Lys 191 via Its Binding Enthalpy and Entropy” (International Journal of Molecular Sciences, 2021)", "key": {"[1]": {"test_system": "wild-type human H1 receptors (WT)", "assay": "biochemical", "assay_type": "binding", "conditions": "mutants K179A, K191A, K179A + K191A versus WT, 25 °C; significant"}, "[2]": {"biological_target": "T1, wild-type human H1 receptors (WT) (Homo sapiens, UniProt P35367)", "T1 construct": "3xHA (three copies of hemagglutinin YPYDVPDYA) (N); membrane preparations", "assay": "biochemical", "assay_type": "binding"}, "[3]": {"biological_target": "T2, K191A (Lys191 mutant of H1 receptor to alanine) (Homo sapiens, UniProt P35367, K191A)", "T2 construct": "3xHA (three copies of hemagglutinin YPYDVPDYA) (N); expressed in transfected cells; membrane preparations", "T2 sequence (P35367 whole entry K191A)": "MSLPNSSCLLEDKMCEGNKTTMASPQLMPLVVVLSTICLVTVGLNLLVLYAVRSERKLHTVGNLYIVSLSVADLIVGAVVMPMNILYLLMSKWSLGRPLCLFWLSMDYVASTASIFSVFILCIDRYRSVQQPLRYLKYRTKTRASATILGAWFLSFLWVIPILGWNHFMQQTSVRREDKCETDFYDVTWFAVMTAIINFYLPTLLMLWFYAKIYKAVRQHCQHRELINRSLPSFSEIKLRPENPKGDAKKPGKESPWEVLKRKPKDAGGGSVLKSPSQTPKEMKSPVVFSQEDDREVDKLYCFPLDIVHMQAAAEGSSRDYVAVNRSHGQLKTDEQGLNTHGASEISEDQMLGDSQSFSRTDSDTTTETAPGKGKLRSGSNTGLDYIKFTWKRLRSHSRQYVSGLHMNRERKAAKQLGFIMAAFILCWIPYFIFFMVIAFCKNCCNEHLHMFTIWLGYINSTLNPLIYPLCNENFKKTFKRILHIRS", "assay": "[3H]mepyramine displacement binding, membranes of CHO cells expressing K191A mutant", "protocol": "(§1) To evaluate changes in the binding affinity of bilastine for H1 receptors by mutations of Lys179^ECL2 and/or Lys191^5.39, the IC50 for bilastine was first obtained from the displacement curves for the binding of 3 nM [^3H] mepyramine to membrane preparations of CHO cells expressing wild-type human H1 receptors (WT), Lys179^ECL2 or Lys191^5.39 mutants of WT to alanine (K179A and K191A), and both Lys179^ECL2 and Lys191^5.39 mutants of WT to alanine (K179A + K191A) at 4 °C–37 °C (Figure 3). The Ki values for bilastine were then calculated from the IC50, as described in the materials and methods section.\nCHO cells stably expressing WT, K179A, K191A, and K179A + K191A were cultured, and membrane preparations were obtained as described previously. The receptor binding assay with [^3H] mepyramine, a radioligand for H1 receptors, was performed in accordance with the methods described previously. Briefly, aliquots (0.1 mL) of membrane preparations (approximately 50 µg of membrane proteins) were incubated with 3 nM [^3H] mepyramine in the presence or absence of various concentrations of bilastine for 3 h at 37 °C, 24 h at 25 °C and 14 °C, and 7 days at 4 °C in normal HEPES buffer (NaCl, 120 mM; KCl, 5.4 mM; MgCl2, 1.6 mM; CaCl2, 1.8 mM, D-glucose, 11 mM; and HEPES, 25 mM; pH 7.4 at 37 °C; final volume 1 mL). The reaction mixture was filtered through glass fiber filters, and the radioactivity trapped on the filters was determined by scintillation counting. All determinations were made in quadruplicate. The protein content in the membrane preparations was determined using a BCA protein assay kit (Pierce, Rockford, IL, USA).\n(§2) The IC50 for bilastine was determined by fitting the displacement curves to the one-site model (KaleidaGraph; Synergy Software, Reading, PA, USA):B = 100 − P × C/(C + IC50) where B is the amount of [^3H] mepyramine bound, C is the free concentration of bilastine, and P is the percentage of the binding sites of bilastine. […]"}, "[4]": {"biological_target": "T3, K179A + K191A (both Lys179 and Lys191 mutant of H1 receptor to alanine) (Homo sapiens, UniProt P35367, K179A/K191A)", "T3 construct": "3xHA (three copies of hemagglutinin YPYDVPDYA) (N); expressed in transfected cells; membrane preparations", "T3 sequence (P35367 whole entry K179A/K191A)": "as the sequence (P35367 whole entry K191A) above, with K179A counted along it", "assay": "[3H]mepyramine displacement binding, membranes of CHO cells expressing K179A + K191A mutant", "protocol": "as §1\n(§3) CHO cells stably expressing WT, K179A, K191A, and K179A + K191A were cultured, and membrane preparations were obtained as described previously. […] The reaction mixture was filtered through glass fiber filters, and the radioactivity trapped on the filters was determined by scintillation counting. […] The protein content in the membrane preparations was determined using a BCA protein assay kit (Pierce, Rockford, IL, USA).\nas §2"}, "[5]": {"biological_target": "T4, K179A (Lys179 mutant of H1 receptor to alanine) (Homo sapiens, UniProt P35367, K179A)", "T4 construct": "3xHA (three copies of hemagglutinin YPYDVPDYA) (N); expressed in transfected cells; membrane preparations", "T4 sequence (P35367 whole entry K179A)": "as the sequence (P35367 whole entry K191A) above, with K179A, A191K counted along it", "assay": "[3H]mepyramine displacement binding, membranes of CHO cells expressing K179A mutant", "protocol": "as §1, §3, §2"}, "[6]": {"conditions": "K191A versus WT, van 't Hoff analysis 4-37 °C, significant"}}}
{"compound": "CCOCCn1c(C2CCN(CCc3ccc(C(C)(C)C(=O)O)cc3)CC2)nc2ccccc21", "note": "[bilastine, Bilastine]", "values": [{"measurement": "reduction of affinity for H1 receptors following mutation of Lys179 and/or Lys191", "setting": "[1]", "result": "1.3 to 4.1", "unit": "times"}, {"measurement": "Ki", "setting": "[2]", "result": "1.92 ± 0.08", "unit": "nM"}, {"measurement": "Ki", "setting": "[3]", "result": "2.57 ± 0.16", "unit": "nM"}, {"measurement": "increase in enthalpy-dependent binding forces (∆H°) by mutation", "setting": "[3]; [6]", "result": 1.94, "unit": "kcal/mol"}, {"measurement": "reduction in the entropy-dependent binding forces (∆T∆S°) by mutation", "setting": "[3]; [6]", "result": 1.96, "unit": "kcal/mol"}, {"measurement": "Ki", "setting": "[4]", "result": "7.96 ± 0.76", "unit": "nM"}, {"measurement": "reduction in the entropy-dependent binding forces (∆T∆S°) by mutation", "setting": "[4]; K179A + K191A versus WT, van 't Hoff analysis 4-37 °C, not significant", "result": 0.526, "unit": "kcal/mol"}, {"measurement": "Ki", "setting": "[5]", "result": "5.2 ± 1.18", "unit": "nM"}, {"measurement": "reduction in the enthalpy-dependent binding forces (∆H°) by mutation", "setting": "[5]; K179A versus WT, van 't Hoff analysis 4-37 °C, not significant", "result": 0.454, "unit": "kcal/mol"}]}
